Each structure is given as a SMILES string.

This passage reports IC50 and GI50 results from ChEMBL document CHEMBL1133452, “Identification of novel purine and pyrimidine cyclin-dependent kinase inhibitors with distinct molecular interactions and tumor cell growth inhibition profiles” (J Med Chem, 2000).

For assay [1], the target named is Cyclin-dependent kinase 2 (Homo sapiens, UniProt P24941). Briefly: Inhibition of Cyclin-dependent kinase 2 enzyme from starfish oocytes. Further details: species or system Marthasterias glacialis, Oocyte.
A further assay deals with NCI. Description: cells. The settings on record: Homo sapiens, read-out: Mean GI50.
Assay [2] addresses Cyclin-dependent kinase 1/cyclin B (Homo sapiens, UniProt O95067+P06493+P14635+Q8WWL7). Briefly: Inhibition of Cyclin-dependent kinase 1 enzyme from starfish oocytes. Further details: species or system Marthasterias glacialis, Oocyte.

Sequence of Cyclin-dependent kinase 1/cyclin B (P06493 whole entry): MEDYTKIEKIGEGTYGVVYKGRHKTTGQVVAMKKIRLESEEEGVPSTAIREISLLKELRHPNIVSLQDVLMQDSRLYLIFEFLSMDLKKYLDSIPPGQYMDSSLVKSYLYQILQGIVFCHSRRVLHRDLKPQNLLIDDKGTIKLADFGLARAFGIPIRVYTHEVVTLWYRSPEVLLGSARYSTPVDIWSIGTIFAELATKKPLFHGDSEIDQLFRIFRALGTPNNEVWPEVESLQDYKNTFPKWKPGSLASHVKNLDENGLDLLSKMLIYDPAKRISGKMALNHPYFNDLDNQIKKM
Sequence of Cyclin-dependent kinase 1/cyclin B (P14635 whole entry): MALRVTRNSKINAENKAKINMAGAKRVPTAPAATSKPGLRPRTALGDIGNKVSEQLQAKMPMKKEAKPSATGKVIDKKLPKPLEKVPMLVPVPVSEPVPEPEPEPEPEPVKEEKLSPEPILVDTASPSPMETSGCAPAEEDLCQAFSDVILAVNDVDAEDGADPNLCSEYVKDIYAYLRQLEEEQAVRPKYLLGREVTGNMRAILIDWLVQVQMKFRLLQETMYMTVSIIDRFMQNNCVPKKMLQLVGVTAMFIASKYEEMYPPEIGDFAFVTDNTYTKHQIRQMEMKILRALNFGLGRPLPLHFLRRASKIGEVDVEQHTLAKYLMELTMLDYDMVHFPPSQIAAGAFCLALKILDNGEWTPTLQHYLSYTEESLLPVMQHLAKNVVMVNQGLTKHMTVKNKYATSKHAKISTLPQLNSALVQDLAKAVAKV
Sequence of Cyclin-dependent kinase 1/cyclin B (Q8WWL7 whole entry): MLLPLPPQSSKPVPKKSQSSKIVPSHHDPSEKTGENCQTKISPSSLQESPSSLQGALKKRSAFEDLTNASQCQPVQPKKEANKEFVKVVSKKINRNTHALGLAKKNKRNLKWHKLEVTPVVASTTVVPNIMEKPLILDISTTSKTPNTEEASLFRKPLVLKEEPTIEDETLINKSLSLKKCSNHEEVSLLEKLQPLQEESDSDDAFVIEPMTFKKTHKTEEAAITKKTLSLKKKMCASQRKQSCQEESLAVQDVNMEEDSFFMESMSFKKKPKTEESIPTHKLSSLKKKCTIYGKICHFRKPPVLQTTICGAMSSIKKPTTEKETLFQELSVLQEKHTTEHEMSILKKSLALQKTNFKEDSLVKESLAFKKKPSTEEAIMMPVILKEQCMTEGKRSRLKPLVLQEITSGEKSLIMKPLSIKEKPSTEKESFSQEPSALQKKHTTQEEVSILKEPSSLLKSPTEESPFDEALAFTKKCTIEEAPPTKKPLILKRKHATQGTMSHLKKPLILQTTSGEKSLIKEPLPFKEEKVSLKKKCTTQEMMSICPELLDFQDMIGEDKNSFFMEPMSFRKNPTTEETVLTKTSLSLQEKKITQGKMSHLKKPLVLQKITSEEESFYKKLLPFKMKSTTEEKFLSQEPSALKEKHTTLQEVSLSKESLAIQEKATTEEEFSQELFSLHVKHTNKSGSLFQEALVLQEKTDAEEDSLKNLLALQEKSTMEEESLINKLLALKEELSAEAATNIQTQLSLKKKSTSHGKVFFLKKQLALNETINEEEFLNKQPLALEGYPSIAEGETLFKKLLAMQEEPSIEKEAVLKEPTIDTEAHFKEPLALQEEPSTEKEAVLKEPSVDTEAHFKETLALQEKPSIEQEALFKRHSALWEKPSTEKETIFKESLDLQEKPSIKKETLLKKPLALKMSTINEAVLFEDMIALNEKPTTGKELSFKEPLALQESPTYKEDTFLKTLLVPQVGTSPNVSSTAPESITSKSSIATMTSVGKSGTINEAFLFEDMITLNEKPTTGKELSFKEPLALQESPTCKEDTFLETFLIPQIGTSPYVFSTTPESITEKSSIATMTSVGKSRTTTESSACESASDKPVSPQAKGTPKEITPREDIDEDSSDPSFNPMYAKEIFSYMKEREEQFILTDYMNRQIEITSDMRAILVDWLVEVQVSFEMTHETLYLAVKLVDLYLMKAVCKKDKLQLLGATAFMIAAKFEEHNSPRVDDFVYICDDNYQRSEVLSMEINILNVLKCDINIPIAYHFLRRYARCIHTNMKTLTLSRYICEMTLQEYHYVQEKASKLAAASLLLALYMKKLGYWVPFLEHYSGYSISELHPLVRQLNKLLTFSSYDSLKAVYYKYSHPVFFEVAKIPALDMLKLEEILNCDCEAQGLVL
Sequence of Cyclin-dependent kinase 1/cyclin B (O95067 whole entry): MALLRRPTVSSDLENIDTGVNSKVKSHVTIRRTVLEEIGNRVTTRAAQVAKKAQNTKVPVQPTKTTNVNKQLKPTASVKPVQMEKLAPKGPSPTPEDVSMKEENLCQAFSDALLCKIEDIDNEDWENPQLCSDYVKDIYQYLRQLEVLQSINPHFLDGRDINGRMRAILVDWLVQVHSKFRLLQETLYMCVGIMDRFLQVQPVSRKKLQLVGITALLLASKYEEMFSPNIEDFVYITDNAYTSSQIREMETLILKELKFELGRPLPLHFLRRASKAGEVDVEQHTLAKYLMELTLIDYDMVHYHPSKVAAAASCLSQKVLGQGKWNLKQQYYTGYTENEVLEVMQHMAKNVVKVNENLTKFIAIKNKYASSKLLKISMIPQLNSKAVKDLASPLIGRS
Description for NCI: Inhibition of NCI cell line proliferation

In assay [1], `c1nc(OCC2CCCCC2)c2nc[nH]c2n1` showed a 50% inhibitory concentration (IC50) of 13 µM. The GI50 with NCI is 55 µM.

Regarding `Nc1cc(OCC2CCCCC2)nc(N)n1`, the IC50 in assay [1] and in assay [2] was over 10 µM in each case. Besides, in the assay on NCI, the concentration for 50% growth inhibition (GI50) was over 100 µM.

Consider `Cn1cnc2c(OCC3CCCCC3)nc(N)nc21`, for which the half-inhibitory concentration (IC50) in assay [1] is over 100 µM. Further, in the assay on NCI, the GI50 is over 100 µM.
